# Where “and” joins values, the source holds several entries; their conditions need not be identical. Equal entries are not always repeated.
# Tests used:
# Hematology panel = format: in vivo, mouse; conditions: small tumors; single-cycle study, 55.5 MBq; ~85 d
# [1] = system: s.c. HER2(−) MDA-MB-468 tumors; format: in vivo, mouse; conditions: 24 h p.i.
# [2] = system: s.c. HER2(+) BT-474 tumors; experiment: Dosimetry calculations (estimated absorbed doses, therapeutic index); conditions: optimized anti-HER2-DOTA-PRIT, from 1.0-336 h biodistribution
# Text: For each tissue, the non-decay-corrected time-activity concentration data were fit using Excel to a 1-component, 2-component, or more complex exponential function as appropriate, and analytically integrated to yield the cumulated activity concentration per unit administered activity (MBq-h/g per MBq). The ^177Lu equilibrium dose constant for non-penetrating radiations (8.49 g-cGy/MBq-h) was used to estimate the tumor-to-tumor and select organ-to-organ self-absorbed doses, assuming complete local absorption of the ^177Lu beta rays only, and ignoring the gamma ray and non-self dose contributions.
# [3] = MDA-MB-468 HER2(−), PRIT + no CA, mean ± SEM
smiles,measurement,setting,value
Nc1ccc(CC2CN(CC(=O)[O-])CCN(CC(=O)[O-])CCN(CC(=O)[O-])CCN2CC(=O)[O-])cc1.[177Lu+3] (stereo not drawn) [^177Lu-DOTA-Bn],HGB,Hematology panel,13.1 g/dL and 12.9 g/dL and 14.3 g/dL and 14.9 g/dL and 14.0 g/dL
same,RBC,Hematology panel,8.22 M/μL and 7.74 M/μL and 8.54 M/μL and 8.80 M/μL and 8.32 M/μL
same,"tumor uptake in HER2(−) tumors vs HER2(+) BT-474 tumors, fold lower","[1]; PRIT, no CA",~7 fold
same,^177Lu activity in Blood,[1]; [3],6.59 ± 1.31 % IA/g
same,^177Lu activity in Bone,[1]; [3],0.62 ± 0.17 % IA/g
same,^177Lu activity in Heart,[1]; [3],1.78 ± 0.29 % IA/g
same,^177Lu activity in Kidneys,[1]; [3],2.39 ± 0.54 % IA/g
same,^177Lu activity in Large Int.,[1]; [3],0.35 ± 0.06 % IA/g
same,^177Lu activity in Liver,[1]; [3],2.69 ± 0.35 % IA/g
same,^177Lu activity in Lungs,[1]; [3],2.44 ± 0.42 % IA/g
same,^177Lu activity in Muscle,[1]; [3],0.50 ± 0.14 % IA/g
same,^177Lu activity in Small Int.,[1]; [3],0.61 ± 0.11 % IA/g
same,^177Lu activity in Spleen,[1]; [3],1.06 ± 0.16 % IA/g
same,^177Lu activity in Stomach,[1]; [3],0.27 ± 0.04 % IA/g
same,^177Lu activity in Tumor,[1]; [3],2.75±0.17 % IA/g
same,"Estimated absorbed dose, Blood",[2],1.4 cGy/MBq
same,"Estimated absorbed dose, Bone",[2],0.7 cGy/MBq
same,"Estimated absorbed dose, Heart",[2],0.4 cGy/MBq
same,"Estimated absorbed dose, Kidneys",[2],5.6 cGy/MBq
same,"Estimated absorbed dose, Large Intestine",[2],0.8 cGy/MBq
same,"Estimated absorbed dose, Liver",[2],3.3 cGy/MBq
same,"Estimated absorbed dose, Lung",[2],1.3 cGy/MBq
same,"Estimated absorbed dose, Muscle",[2],0.9 cGy/MBq
same,"Estimated absorbed dose, Small Intestine",[2],0.4 cGy/MBq
same,"Estimated absorbed dose, Spleen",[2],0.3 cGy/MBq
same,"Estimated absorbed dose, Stomach",[2],0.3 cGy/MBq
same,"Estimated absorbed dose, Tumor",[2],39.9 cGy/MBq

# From US20210017295A1, “BISPECIFIC BINDING AGENTS AND USES THEREOF” (MEMORIAL SLOAN KETTERING CANCER CENTER, priority 2018, published 2021)
